Measurements from publication PMC4991450, “Protein arginine methyltransferase 1 may be involved in pregnane x receptor-activated overexpression of multidrug resistance 1 gene during acquired multidrug resistant” (Oncotarget, 2016).

target: Protein arginine methyltransferase 1 (PRMT1) (Homo sapiens, UniProt Q99873); test: Transzyme HMT PRMT1 fluorescence polarization enzyme assay, rescreened at […]; format: biochemical
Sequence (Q99873 whole entry): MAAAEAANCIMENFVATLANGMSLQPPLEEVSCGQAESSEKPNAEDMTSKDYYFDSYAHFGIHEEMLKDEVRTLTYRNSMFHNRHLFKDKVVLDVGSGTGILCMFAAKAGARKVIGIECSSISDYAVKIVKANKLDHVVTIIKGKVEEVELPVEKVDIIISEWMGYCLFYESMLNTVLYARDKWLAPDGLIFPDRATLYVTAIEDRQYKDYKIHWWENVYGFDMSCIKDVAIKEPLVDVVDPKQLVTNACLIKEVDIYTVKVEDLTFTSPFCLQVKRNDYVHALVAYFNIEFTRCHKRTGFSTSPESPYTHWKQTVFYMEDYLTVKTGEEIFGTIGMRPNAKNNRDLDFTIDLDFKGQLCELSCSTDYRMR

Structure (SMILES) | Transzyme HMT PRMT1 fluorescence polarization enzyme assay, rescreened at 0-100
CCOC(=O)C1=C(C)NC(C)=C(C(=O)OC)C1c1cccc(Cl)c1Cl (centres unmarked) [felodipline] | Five compounds were found to inhibit PRMT1 activity, including rutin, isoquercitrin, salvianolic acid A (SAA), naproxen, and felodipline
O=c1c(O[C@@H]2O[C@H](CO)[C@@H](O)[C@H](O)[C@H]2O)c(-c2ccc(O)c(O)c2)oc2cc(O)cc(O)c12 [isoquercitrin] | Five compounds were found to inhibit PRMT1 activity, including rutin, isoquercitrin, salvianolic acid A (SAA), naproxen, and felodipline
COc1ccc2cc([C@H](C)C(=O)O)ccc2c1 [naproxen] | Five compounds were found to inhibit PRMT1 activity, including rutin, isoquercitrin, salvianolic acid A (SAA), naproxen, and felodipline
C[C@@H]1O[C@@H](OC[C@H]2O[C@@H](Oc3c(-c4ccc(O)c(O)c4)oc4cc(O)cc(O)c4c3=O)[C@H](O)[C@@H](O)[C@@H]2O)[C@H](O)[C@H](O)[C@H]1O [rutin] | Five compounds were found to inhibit PRMT1 activity, including rutin, isoquercitrin, salvianolic acid A (SAA), naproxen, and felodipline
O=C(/C=C/c1ccc(O)c(O)c1/C=C/c1ccc(O)c(O)c1)O[C@H](Cc1ccc(O)c(O)c1)C(=O)O [salvianolic acid A] | Five compounds were found to inhibit PRMT1 activity, including rutin, isoquercitrin, salvianolic acid A (SAA), naproxen, and felodipline
